Measurements published in patent US20210121486A1, “ANIMAL THERAPEUTIC AND FEED COMPOSITIONS AND METHODS OF USE” (Cadena Bio, Inc., priority 2015, published 2021).

Test system: common gut microbes
Experiment: Gut microbe growth on carbohydrate food sources (96-well carbohydrate array, A600 growth curves), whole panel
Format: cell-based
Settings: all of the gut microflora cultures, sole carbohydrate source, anaerobic, 37° C.
Protocol: The ability of common gut microbes to grow on carbohydrate food sources was measured using a custom carbohydrate array constructed in a 96-well format. See for example, Martens E C, et al, “Recognition and Degradation of Plant Cell Wall Polysaccharides by Two Human Gut Symbionts,” PLOS Biology, volume 9, issue 12, page e1001221 (2011) and Martens E C, Chiang H C, Gordon J I, “Mucosal glycan foraging enhances fitness and transmission of a saccharolytic human gut bacterial symbiont.” Cell Host Microbe 4: 447-457 (2008). Each well of a flat bottom 96-well plate was loaded with 100 µL of each sterilized carbohydrate stock at 2× concentration.
Each substrate was represented in […] on each assay plate in two non-adjacent wells. Two carbohydrate-free water wells were included as negative controls. […] Plates were then loaded into an automated plate handling device coupled to an absorbance reader. Absorbance at 600 nm (A600) was measured for each well at 10-15 min intervals. […]

SMILES: CC(=O)N[C@H]1C(O)O[C@H](CO)[C@@H](O)[C@@H]1O (stereo partly shown) [N-acetylglucosamine]
- growth of the gut microflora cultures on the carbohydrate: grew well
